{"source": "patent US9872493B2", "about": "“Method for promoting plant growth” (SUMITOMO CHEMICAL COMPANY, LIMITED, priority 2012, dated 2018)", "key": {"Nicotiana benthamiana": {"system": "Nicotiana benthamiana", "test": "Test for evaluating growth promotion under low-temperature stress by hydroponics of Nicotiana benthamiana (Test Examples 4-6)", "format": "in vivo", "conditions": "compound at 10 ppm, 7 days at 1.5±1.0° C. low-temperature stress, then 3 days at 22° C., green leaf area vs untreated control, read-out: value of a relative leaf area (equation (1))", "method": "A DMSO solution, which contained one of the compounds 5, 14, 22, 23, 24, 25, 26, 28, 30, 31, 32, 33, 34, 35, 38, 39 and 40 of the present invention at a concentration of 10,000 ppm, was prepared. The DMSO solution of the compound of the present invention was added at a volume ratio of 1/1,000 to the Murashige•Scoog medium of a ½-fold concentration (a medium containing 2.3 g of mixed salts (manufactured by Wako Pure Chemical Industries, Ltd.), 200 mg of Myo-inositol (manufactured by Sigma-Aldrich Co. LLC.), 2 mg of nicotinic acid (manufactured by Wako Pure Chemical Industries, Ltd.), 2 mg of pyridoxine hydrochloride (manufactured by Wako Pure Chemical Industries, Ltd.), 20 mg of thiamine hydrochloride (manufactured by Wako Pure Chemical Industries, Ltd.), 20 g of sucrose (manufactured by Wako Pure Chemical Industries, Ltd.), and 1 g of MES (manufactured by DOJINDO LABORATORIES) per 1 L of water and having pH adjusted to 5.8), thereby preparing a medium containing the compound of the present invention at a concentration of 10 ppm.\nSeeds of Nicotiana benthamiana were seeded in the 5 μL of the medium and cultured overnight at 22° C. Thereafter, 45 μL of the medium containing the compound of the present invention at a concentration of 10 ppm was added thereto, and the seeds are cultivated for 7 days at 22° C., an illuminance of 4,000 lux, and a day length of 16 hours, thereby the nursery plants raised from the Nicotiana benthamiana were treated with the compound.\nMoreover, instead of the above medium a test plot, which was obtained by performing the same treatment by using a medium prepared by adding DMSO to the Murashige•Scoog medium of ½-fold concentration at a volume ratio of 1/1,000, was used as a control plot not treated with the compound.\nThe nursery plants of the Nicotiana benthamiana treated with the compound were subjected to low-temperature treatment by being cultivated for 7 days at 1.5±1.0° C., an illuminance of 2,000 lux, and a day length of 16 hours.\nThe nursery plants of the Nicotiana benthamiana having undergone the low-temperature stress treatment were cultivated for 3 days at 22° C., an illuminance of 4,000 lux, and a day length of 16 hours. Thereafter, the area of green leaf was quantified by Scanalyzer HTS (manufactured by LemnaTec GmbH). Moreover, the value of the control plot not treated with the compound that had not yet been subjected to the low-temperature stress treatment was measured in the same manner. A value of a relative leaf area was calculated based on the following equation (1), and if the value of a relative leaf area was 5 or greater, the compound was evaluated to have a mitigating effect. As a result of the evaluation, it was confirmed that when the plant was treated with one of the compounds 5, 14, 22, 23, 24, 25, 26, 28, 30, 31, 32, 33, 34, 35, 38, 39 and 40 of the present invention at 10 ppm, the value of a relative leaf area was 5 or greater, compared to the area of green leaf of the control plot not treated with compound. Accordingly, it was confirmed that the treatment using the compound of the present invention brings about a growth promotion effect. Relative leaf area=100*(a green area of a plot treated with the compound of the present invention−a green area of a control plot not treated with the compound of the present invention)/(a green area of a control plot not treated with the compound of the present invention that has not yet been subjected to low-temperature stress treatment−a green area of a control plot not treated with the compound of the present invention) Equation (1): […]\nA DMSO solution, which contained one of the compounds 6, 7, 8, 11, 12, 15, 19, 23, 24, 25, 28, 30, 31, 33, 34, 36, 37, 38 and 39 of the present invention at a concentration of 1,000 ppm, was prepared. […]"}, "[1]": {"system": "Rice (Variety: Nipponbare)", "test": "Test for evaluating promotion of root growth by hydroponics of rice (Test Examples 1-3)", "format": "in vivo", "method": "Rice (Variety: Nipponbare)\n(§1) A DMSO solution, which contained one of the compounds 14, 18, 21, 23, 26, 28, 29, 30, 35, 36, 37, 39 and 40 of the present invention at a concentration of 100,000 ppm, was added to Hoagland hydroponic solution (Hoagland and Arnon, California Agricultural Experiment Station 1950 Circular 347 pp. 34) of ¼-fold concentration at a volume ratio of 1/10,000. In this manner, hydroponic solutions containing one of the compounds 14, 18, 21, 23, 26, 28, 29, 30, 35, 36, 37, 39 and 40 of the present invention at 10 ppm were prepared respectively. As an untreated control plot, a hydroponic solution obtained by adding DMSO to Hoagland hydroponic solution of ¼-fold concentration at a volume ratio of 1/10,000 was used.\n(§2) Rice seeds were soaked in a 1% aqueous sodium hypochlorite solution for 10 minutes, then soaked in a 70% ethanol solution for surface sterilization, and then washed with distilled water. The sterilized seeds were soaked in a hydroponic solution containing the test compound described above at 10 ppm and incubated in a dark place for 3 days at 28° C. to perform treatment for hastening germination.\n(§3) Thereafter, 30 ml of hydroponic solution containing the test compound at 10 ppm was dispensed in a plastic tube (diameter of 20 mm×height of 113 mm) of which the side was covered with cardboard to block light. A float prepared using a styrene board and vinyl mesh was floated, and the rice seeds that had undergone the treatment for hastening germination were placed on the float on the surface of the hydroponic solution. The seeds were cultivated for 3 days at 26° C., an illuminance of 4,000 lux of the top surface of the tube, a humidity of 50%, and a day length of 16 hours.\nThe nursery plants of rice obtained after cultivating were measured in terms of the length of seminal root by using WinRHIZO system (manufactured by Regent Instruments Inc). For each test plot, an average of the measured values of the seminal root of 4 or 5 individuals were determined.\nas §1, with “compounds 7, 8, 9, 10, 12, 17, 20,” for “compounds 14, 18,”, “21, 25, 27,” for “21, 23, 26,”, “30, 34,” for “30,”, “37, 38,” for “37,”, “of 10,000” for “of 100,000”, “at 1” for “at 10”\nas §2, with “at 1” for “at 10”\nas §3, with “1” for “10”\nThe nursery plants of rice obtained after cultivation were measured in terms of the length of seminal root by using WinRHIZO system (manufactured by Regent Instruments Inc). […]"}}}
{"smiles": "O=C(NCc1ccccc1)c1csc2c(C(F)(F)F)cccc12", "note": "[Compound 40]", "values": [{"measurement": "relative green leaf area after low-temperature stress at 10 ppm", "setting": "Nicotiana benthamiana", "value": "≥ 5", "unit": "%"}, {"measurement": "length of seminal root compared with the untreated control plot (in words)", "setting": "[1]; 1 ppm", "value": "obviously longer"}, {"measurement": "length of seminal root compared with the untreated control plot (in words)", "setting": "[1]; 10 ppm", "value": "obviously longer"}]}
